Assay results taken from ChEMBL document CHEMBL5634138, “Discovery of a novel BLT2 antagonist for the treatment of inflammatory airway diseases” (Eur J Med Chem, 2023).

Columns and labels:
CHO = assay: (§1) Cytotoxicity against CHO cells assessed as inhibition of cell growth at 10 uM incubated overnight by MTS assay reltive to control; format: toxicity, cell-based, Cricetulus griseus; details: chinese hamster, cho, 10 µM
[1] = as §1; format: toxicity, cell-based, Cricetulus griseus; details: chinese hamster, CHO cells, read-out: Activity
Mus musculus [2] = assay: Anti-asthmatic activity against OVA/LPS induced BALB/c mouse model assessed as decrease in bronchoalveolar lavage fluid (BALF) IL-5 level at 10 mg/kg, ip by ELISA method relative to control; format: functional; parameters: scale not given: the % may be the effect or the level left
Mus musculus [3] = assay: Anti-asthmatic activity against OVA/LPS induced BALB/c mouse model assessed as reduction in bronchial hyper-response at 10 mg/kg, ip for one hr before every challenge on day 14 to 16 and measured after 17 days relative to control; format: functional; parameters: scale not given: the % may be the effect or the level left; details: time 17 day
Mus musculus [4] = assay: Anti-asthmatic activity against OVA/LPS induced BALB/c mouse model assessed as decrease in bronchoalveolar lavage fluid (BALF) IL-4 level at 10 mg/kg, ip by ELISA method relative to control; format: functional; parameters: scale not given: the % may be the effect or the level left
Mus musculus [5] = assay: Anti-asthmatic activity against OVA/LPS induced BALB/c mouse model assessed as decrease in bronchoalveolar lavage fluid (BALF) IL-13 level at 10 mg/kg, ip by ELISA method relative to control; format: functional; parameters: scale not given: the % may be the effect or the level left

Row | Compound | Activity (CHO) | further results
1 | CCCCC(=O)N(Cc1ccc(-c2ccc(C(=O)N3CCN(C(C)C)CC3)cc2)cc1)c1ccccc1 | Non-Toxic | –
2 | CCCCC(=O)N(Cc1ccc(-c2ccc(O)cc2)cc1)c1cccc(C)c1 | – | inhibition at 10 µM [1]: 24%
3 | CCCCC(=O)N(Cc1ccc(-c2ccc(OC)cc2)cc1)c1cccc(F)c1 | – | inhibition at 10 µM [1]: 7%
4 | CCCCC(=O)N(Cc1ccc(-c2ccc(C(N)=O)cc2)cc1)c1ccccc1 | Non-Toxic | –
5 | CCCCC(=O)N(Cc1ccc(-c2ccc(OCCC(=O)O)cc2)cc1)c1cccc(F)c1 | Non-Toxic | –
6 | CCCCC(=O)N(Cc1ccc(-c2ccc(O)cc2)nc1)c1cccc(F)c1 | Non-Toxic | –
7 | CCCCC(=O)N(Cc1ccc(-c2ccc(C(=O)NCC)cc2)cc1)c1ccccc1 | Non-Toxic | –
8 | CCCCC(=O)N(Cc1ccc(-c2cccc(C(=O)O)c2)cc1)c1ccccc1 | Non-Toxic | –
9 | CCCCC(=O)N(Cc1ccc(-c2ccc(O)nc2)cc1)c1cccc(F)c1 | Non-Toxic | –
10 | CCCCC(=O)N(Cc1ccc(-c2ccc(N)cc2)cc1)c1ccccc1 | Non-Toxic | –
11 | CCc1cc(C(C)=O)c(O)cc1OCCCCCC(C)(C)c1nn[nH]n1 [LY-255283] | – | Activity (Mus musculus [2]): 48%; Activity (Mus musculus [3]): 69%; Activity (Mus musculus [4]): 38%; Activity (Mus musculus [5]): 38%
12 | CCCCC(=O)N(Cc1ccc(-c2ccc(OC)cc2)cc1)c1cccc(C(F)(F)F)c1 | Non-Toxic | –
13 | CCCCC(=O)N(Cc1ccc(-c2ccc(C(=O)O)cc2)cc1)c1ccccc1 | Non-Toxic | –
14 | CCCCC(=O)N(Cc1ccc(-c2ccc(O)cc2)cc1)c1ccccc1 | Non-Toxic | –
15 | CCCCC(=O)N(Cc1ccc(-c2ccc(O/C=C/C(=O)O)cc2)cc1)c1cccc(F)c1 | Non-Toxic | –
16 | CCCCC(=O)N(Cc1ccc(-c2ccc(C(=O)O)cc2)cc1)c1ccccc1F | Non-Toxic | –
